# Results reported in publication PMC10354048 (Communications Chemistry, 2023).
# Residue numbers refer to the chain shown, from its start. In names and notes the source's numbering stands. Where no end group is shown, it is not given here. [ ]: non-standard residue; d: D form. Trp(1-Me) = Cn1cc(C[C@H](N)C(=O)O)c2ccccc21
# B1: aureocin A53 (L-AucA, wild type) (natural protein)
# chain: MSWLNFLKYIAKYGKKAVSAAWKYKGKVLEWLNVGPTLEWVWQKLKKIAGL
# notes: also called AucA-wt; wild-type AucA; source: synthetic: native chemical ligation of two peptide segments and desulfurization, purified by semi-preparative HPLC
# B2: AucA-W22L (natural protein)
# chain: B1 chain with W22L
# notes: also called W22L variant; source: synthetic: automated SPPS on rink amide protide resin
# Columns and labels:
# E. faecalis CW133003 = assay: microbe, parasite or virus in culture; conditions: broth microdilution per CSLI guidelines, Brain Heart Infusion broth, 5 × 10^5 CFU/mL, 37 °C, 20 h, range 64–0.125 µg/mL, average of three repeat assays
# Experimental: (§1) Minimum inhibitory concentrations, determined by broth microdilution, are expressed as an average of three repeat assays. […] [a] MIC values expressed in μg/mL, [b] AC: American Type Culture Collection strain, [c] CW: CANWARD collection clinical isolate strain.33.
# (§2) Minimum Inhibitory Concentrations (MIC) were determined for each of the bacteriocins and controls using a broth microdilution method, as per CSLI guidelines for microbial susceptibility testing. The peptides were dissolved in sterile deionized water to prepare the working stocks, with concentrations determined by UV absorbance at 280 nm[56]. Overnight cultures from the strains of interest were incubated with shaking overnight at 37 °C. Cation-adjusted Mueller Hinton Broth 2 (MHB 2) was used for the S. aureus, and S. epidermidis strains and Brain Heart Infusion (BHI) broth was utilized for the E. faecalis and E. faecium strains. The cultures were prepared and diluted to the turbidity of a 0.5 McFarland standard using MHB or BHI fresh media. Increasing concentrations of the leaderless bacteriocins were added to a 96-well polypropylene plate. The range tested for each bacteriocin was 64–0.125 µg/mL. The bacterial culture was further diluted and mixed in a 1:1 ratio with the bacteriocin solution to yield a final concentration in the wells of 5 × 10^5 CFU/mL. […] A 1:1000 dilution of the growth control was prepared in the respective media and plated onto agar (100 μL) to ensure the correct inoculum concentration (5 × 10^5 CFU/mL indicated by ≈ 50 bacterial colonies). The 96-well and agar plates were incubated at 37 °C, and growth was assessed by the formation of a pellet observable with the naked eye after 20 h. […] Each assay was performed in triplicate.
# (§3) Materials and instruments […]
# (§4) Minimum Inhibitory Concentration (MIC)
# (§5) assays were conducted in 96-Well Clear polypropylene corner notch microplates (Corning, #11313595). For the […]
# S. aureus AC29213 = assay: microbe, parasite or virus in culture; conditions: broth microdilution per CSLI guidelines, cation-adjusted Mueller Hinton Broth 2, 5 × 10^5 CFU/mL, 37 °C, 20 h, range 64–0.125 µg/mL, average of three repeat assays
# Experimental: as §1, §2, §3, §4, §5
# S. aureus CW113379 = assay: microbe, parasite or virus in culture; conditions: broth microdilution per CSLI guidelines, cation-adjusted Mueller Hinton Broth 2, 5 × 10^5 CFU/mL, 37 °C, 20 h, range 64–0.125 µg/mL, average of three repeat assays
# Experimental: as §1, §2, §3, §4, §5
# S. aureus CW114125 = assay: microbe, parasite or virus in culture; conditions: broth microdilution per CSLI guidelines, cation-adjusted Mueller Hinton Broth 2, 5 × 10^5 CFU/mL, 37 °C, 20 h, range 64–0.125 µg/mL, average of three repeat assays
# Experimental: as §1, §2, §3, §4, §5
# S. aureus CW115852 = assay: microbe, parasite or virus in culture; conditions: broth microdilution per CSLI guidelines, cation-adjusted Mueller Hinton Broth 2, 5 × 10^5 CFU/mL, 37 °C, 20 h, range 64–0.125 µg/mL, average of three repeat assays
# Experimental: as §1, §2, §3, §4, §5
# S. epidermidis CW131612 = assay: microbe, parasite or virus in culture; conditions: broth microdilution per CSLI guidelines, cation-adjusted Mueller Hinton Broth 2, 5 × 10^5 CFU/mL, 37 °C, 20 h, range 64–0.125 µg/mL, average of three repeat assays
# Experimental: as §1, §2, §3, §4, §5
# E. faecalis CW133346 = assay: microbe, parasite or virus in culture; conditions: broth microdilution per CSLI guidelines, Brain Heart Infusion broth, 5 × 10^5 CFU/mL, 37 °C, 20 h, range 64–0.125 µg/mL, triplicate
# Experimental: as §2, §3
# (§6) Minimum Inhibitory Concentration (MIC) assays were conducted in 96-Well Clear polypropylene corner notch microplates (Corning, #11313595). For the assay media, cation adjusted Mueller Hinton Broth 2 (Sigma Aldrich, #90922) was used for the S. aureus, and S. epidermidis strains and Brain Heart Infusion broth (BD, #221812) was used for the E. faecalis and E. faecium […]
# (§7) used, as well as melittin prepared by automated SPPS. Experimental bacterial strains used were procured from the American Type Culture collection (S. aureus 29213) and the Canadian Antimicrobial Resistance Alliance
# E. faecium CW130826 = assay: microbe, parasite or virus in culture; conditions: broth microdilution per CSLI guidelines, Brain Heart Infusion broth, 5 × 10^5 CFU/mL, 37 °C, 20 h, range 64–0.125 µg/mL, triplicate
# Experimental: as §2, §3, §6, §7
# E. faecium CW131126 = assay: microbe, parasite or virus in culture; conditions: broth microdilution per CSLI guidelines, Brain Heart Infusion broth, 5 × 10^5 CFU/mL, 37 °C, 20 h, range 64–0.125 µg/mL, triplicate
# Experimental: as §2, §3, §6, §7
# S. epidermidis CW130500 = assay: microbe, parasite or virus in culture; conditions: broth microdilution per CSLI guidelines, cation-adjusted Mueller Hinton Broth 2, 5 × 10^5 CFU/mL, 37 °C, 20 h, range 64–0.125 µg/mL, triplicate
# Experimental: as §2, §3, §6, §7
# [1] = target: the molecule itself; assay: SEC; analytical size exclusion chromatography in phosphate-buffered saline (pH 7.4), UV 210 nm
Molecule,Minimum inhibitory concentration E. faecalis CW133003 (E. faecalis CW133003) [µg/mL],Minimum inhibitory concentration S. aureus AC29213 (S. aureus AC29213) [µg/mL],Minimum inhibitory concentration S. aureus CW113379 (S. aureus CW113379) [µg/mL],Minimum inhibitory concentration S. aureus CW114125 (S. aureus CW114125) [µg/mL],Minimum inhibitory concentration S. aureus CW115852 (S. aureus CW115852) [µg/mL],Minimum inhibitory concentration S. epidermidis CW131612 (S. epidermidis CW131612) [µg/mL],Minimum inhibitory concentration E. faecalis CW133346 (E. faecalis CW133346) [µg/mL],Minimum inhibitory concentration E. faecium CW130826 (E. faecium CW130826) [µg/mL],Minimum inhibitory concentration E. faecium CW131126 (E. faecium CW131126) [µg/mL],Minimum inhibitory concentration S. epidermidis CW130500 (S. epidermidis CW130500) [µg/mL],stoichiometry N [1],binding result [1]
"MSWLNFLKYIAKYGKKAVSAAWKYKGKVLEWLNVGPTLEWVWQKLKKIAGL-NH2 [L-AucA, L-aureocin A53 (Met^1-Leu^51)]",4,4,4,4,16,4,4,2,2,4,,
"MS[Trp(1-Me)]LNFLKYIAKYGKKAVSAAWKYKGKVLEWLNVGPTLEWVWQKLKKIAGL-NH2 [L-^1MeW3, L-aureocin A53 ^1MeTrp3 (Met^1-Leu^51)]",2,4,4,4,8,8,1,2,2,4,,
"[dM][dA]G[dF][dL][dK][dV][dV][dQ][dL][dL][dA][dK][dY]G[dS][dK][dA][dV][dQ][dW][dA][dW][dA][dN][dK]G[dK][dI][dL][dD][dW][dL][dN][dA]G[dQ][dA][dI][dD][dW][dV][dV][dS][dK][dI][dK][dQ][dI][dL]G[dI][dK]-NH2 [D-LnqQ, D-lacticin Q (Met^1-Lys^53)]",2,4,4,8,4,4,2,2,2,4,,
"[dM][dS][dW][dL][dN][dF][dL][dK][dY][dI][dA][dK][dY]G[dK][dK][dA][dV][dS][dA][dA][dW][dK][dY][dK]G[dK][dV][dL][dE][dW][dL][dN][dV]G[dP][dT][dL][dE][dW][dV][dW][dQ][dK][dL][dK][dK][dI][dA]G[dL]-NH2 [D-AucA, D-aureocin A53 (Met^1-Leu^51)]",4,4,4,4,2,4,4,2,4,4,,
B1,,,,,,,,,,,2,
B2,,,,,,,,,,,,binds
